{
  "source": "patent EP0941988A2",
  "about": "“Benzamidoxime derivatives, intermediates and process for their preparation and their use as fungicides” (BASF AKTIENGESELLSCHAFT, priority 1998, dated 1999)",
  "key": {"[1]": {"tested_on": "Weizenmehltau (Erysiphe graminis forma specialis tritici)", "test": "Efficacy against wheat powdery mildew, protective spray on wheat seedlings cv. \"Kanzler\" (Anwendungsbeispiel 1)", "type": "in vivo", "settings": "inoculated 24 h after spraying, rating after 7 days, untreated 80 %", "text": "Anwendungsbeispiel 1 - Wirksamkeit gegen Weizenmehltau\nBlätter von in Töpfen gewachsenen Weizenkeimlingen der Sorte ? Kanzler\" wurden mit wäßriger Wirkstoffaufbereitung, die aus einer Stammlösung bestehend aus 10 % Wirkstoff, 63 % Cyclohexanon und 27 % Emulgiermittel angesetzt wurde, bis zur Tropfnässe besprüht und 24 Stunden nach dem Antrocknen des Spritzbelages mit Sporen des Weizenmehltaus (Erysiphe graminis forma specialis tritici) bestäubt. Die Versuchspflanzen wurden anschließend im Gewächshaus bei Temperaturen zwischen 20 und 24°C und 60 bis 90 % relativer Luftfeuchtigkeit aufgestellt. Nach 7 Tagen wurde das Ausmaß der Mehltauentwicklung visuell in % Befall der gesamten Blattfläche ermittelt."}, "[2]": {"tested_on": "Weizenmehltau (Erysiphe graminis f.sp.tritici)", "test": "Efficacy against wheat powdery mildew, protective spray on wheat seedlings cv. \"Frühgold\" (Beispiel 2)", "type": "in vivo", "settings": "inoculated 24 h after spray coating dried, visual rating after 7 days, concentration not given, untreated plants 80 % infested", "protocol": "Beispiel 2: Wirksamkeit gegen Weizenmehltau\nBlätter von in Töpfen gewachsenen Weizenkeimlingen der Sorte \"Frühgold\" wurden mit wäßriger Wirkstoffaufbereitung, die aus einer Stammlösung bestehend aus 10 % Wirkstoff, 63% Cyclohexanon und 27 % Emulgiermittel angesetzt wurde, bis zur Tropfnässe besprüht und 24 h nach dem Antrocknen des Spritzbelages mit Sporen des Weizenmehltaus (Erysiphe graminis f.sp.tritici) bestäubt. Die Versuchspflanzen wurden anschließend im Gewächshaus bei Temperaturen zwischen 20 und 22 °C und 75 bis 80 % relativer Luftfeuchtigkeit aufgestellt. Nach 7 Tagen wurde das Ausmaß der Mehltauentwicklung visuell in % der gesamten Blattfläche ermittelt."}},
  "data": [
    {"molecule": "O=C(Cc1ccccc1)NC(=NOCC1CC1)c1c(Cl)ccc(F)c1Cl", "note": "[II.1, N-Phenylacetyl-2,6-dichlor-5-fluorbenzamid-[O-cyclopropylmethyl]oxim]", "values": [
      {"measurement": "%-Befall der Blätter nach Applikation von ... ppm-haltiger wäßriger Wirkstoffaufbereitung", "setting": "[1]; 16 ppm", "result": 0, "unit": "%"},
      {"measurement": "%-Befall der Blätter nach Applikation von ... ppm-haltiger wäßriger Wirkstoffaufbereitung", "setting": "[1]; 63 ppm", "result": 0, "unit": "%"},
      {"measurement": "Ausmaß der Mehltauentwicklung (Befall)", "setting": "[2]", "result": "keinen Befall"}
    ]}
  ]
}
